Reference: patent US8999937B2, “Glucocorticoid induced leucine zipper mimetics as therapeutic agents in multiple sclerosis” (Indiana University Research and Technology Corporation, priority 2011, dated 2015)
“Also recorded” adds a separate entry of the source.

How the values were obtained:
[1] = test system: CD4+ LNC from PLP primed SJL/J mice; test: In vitro cytokine secretion (ELISA) by PLP139-151 restimulated CD4+ cells from primed SJL/J mice; assay type: cell-based, mouse; details: for IFN-γ secretion / IL-10 secretion / IL-12 secretion / IL-17 secretion: CD4+ LNC, PLP restimulated, 48 h; for IFN-γ secretion / IL-10 secretion / IL-12 secretion: vs untreated/control peptide; for IL-17 secretion: vs untreated/control-P; for cytokine secretion (INF-γ and IL-12p40) by in-vivo primed T cells: CD4+ splenocytes, PLP 40 μg/ml, 24 hrs, FIG. 5
Description: CD4+ splenocytes isolated 10 days post-immunization from SJL mice induced EAE were co-cultured with irradiated syngenic APC and restimulated with PLP (40 μg/ml) in the presence of complex of chariot peptide with rGILZ protein/dexamethasone/GILZ-P at indicated concentrations. Supernatants collected after 24 hrs were assessed for INF-γ and IL-12p40 by ELISA. *=p<0.05 when compared to cells +PLP.
Supernatants from separate CD4+LNC cultured similarly collected at 24 hrs and 48 hrs were stored at −20° C. The levels of cytokines, IL-10, IL-12, and interferon gamma (IFN-γ) were determined by ELISA, using OptEIA kits, according to the manufacturer's recommendations (BD PharMingen). Group comparisons were made by one way analysis of variance (ANOVA) followed by Tukey's post-hoc.
Supernatants collected at 24 and 48 h were assessed for specific cytokines using the OptEIA kits (BD Biosciences). Proliferation assays included parallel cultures for 72 h with a final 18-h pulse with [^3H]thymidine measured by liquid scintillation counting (Microbeta, Turku, Finland).

[2] = test system: activated p65 NF-κB subunit; test: NF-κB assay (TransAM): p65 DNA binding in nuclear extracts; assay type: cell-based, mouse; details: CD4+ LNC restimulated with PLP139-151, 24 h
Description: Nuclear and cytoplasmic protein fractions of CD4+ T cells obtained using a nuclear extraction kit are assessed for NF-κB activation and p65 nuclear translocation using Trans^AM NF-κB kits (Active Motif, Carlsbad, Calif.). The effect of exogenous GILZ and GILZ mimetics on phosphorylation and proteolytic degradation of IκB proteins is determined by Western blot analysis of nuclear and cytoplasmic protein fractions from CD4+ T cells pretreated with GILZ/chariot peptide complex prior to stimulation.
5 μg of nuclear extracts isolated from PLP139-151 restimulated CD4+ cells from R-EAE mice were incubated in a 96-well plate coated with oligonucleotides containing the NF-κB consensus binding site. The activated NF-κB bound to DNA was detected by anti-p65 antibody followed by a peroxidase-coupled secondary antibody and substrate using the TransAM kit protocol (Active Motif).

R-EAE in SJL/J mice = test: Relapsing remitting EAE (R-EAE) in SJL/J mice, clinical score; assay type: in vivo, mouse
Description: Relapsing remitting EAE is induced in 8-10-week old female SJL/J mice. The mice were immunized with 100 μg of PLP139-151 in PBS emulsified 1:1 in complete Freund's adjuvant supplemented with 200 μg of Mycobacterium tuberculosis H37RA (Difco Laboratories, Detroit, Mich.) distributed over four sites on the lateral hind flanks subcutaneously. Mice were injected with 100 ng of pertussis toxin (List Biological Laboratories, Campbell, Calif.) intraperitonealy on the day of immunization and 2 days later (Srinivasan et al., (2002) J Immunol, 169(4):2180-8).
As opposed to the B10.PL mice which often develop monophasic EAE, PLP139-151 immunized SJL/J mice develop relapsing remitting form of EAE (R-EAE) (Dudhgaonkar et al. (2009) J Immunol, 183(11):7505-13). Groups of SJL/J mice were induced EAE as described above. Animals were observed daily for clinical signs and scored as follows: 0, no clinical signs; 1, limp tail or waddling gait with tail tonicity; 2, waddling gait with limp tail (ataxia); 2.5, ataxia with partial paralysis of one limb; 3, partial hind-limb paralysis; 3.5, full paralysis of one limb with partial paralysis of the second limb; 4, full paralysis of two limbs; 4.5 moribund; and 5, death (1, 8). […] A group of mice received the GILZ peptide:Pep-1 complex on day 12 post-immunization. Groups of mice treated with PBS (vehicle) or Pep-1 alone were included as control.
A group of mice received the GILZ-P•Pep-1 complex 12 days post-immunization. rh-GILZ was used to evaluate the effect in R-EAE.

[3] = test system: T-bet, GATA-3, IL-10 and FoxP3 mRNA; test: Quantitative RT-PCR in CD4+ LNC from treated R-EAE mice; assay type: in vivo, mouse; details: for GATA-3 mRNA / T-bet mRNA: mice treated on day 0, re-stimulation with PLP139-151; for FoxP3 mRNA / IL-10 mRNA: mice treated on day 0, vs vehicle/control-P
Description: 50 ng of cDNA from CD4+LNC were used for quantitative measurement of message for (A) T-bet, (B) GATA-3, (C) IL-10, and (D) FoxP3 by quantitative RT-PCR. (E), gel electrophoresis of representative products. * and # represent p<0.05 by analysis of variance as compared with vehicle or control peptide-treated group, respectively.

T-bet and GATA-3 mRNA = test: Real time PCR for T-bet and GATA-3 in CD4+ LNC restimulated in vitro; assay type: cell-based, mouse; details: CD4+ LNC restimulated in vitro with PLP139-151
Description: Intracellular delivery of r-GILZ was detected using […]-labeled anti-DDK mAb in permeabilized cells and measured by FACS Calibur. […] The delivery efficiency was assessed by mean fluorescence intensity (D). […] (F)-(I) show supernatants collected at 48 h were assessed for IFN-γ (F), IL-12 (G), IL-17 (H), and IL-10 (I) by ELISA. […] Five micrograms of nuclear extracts were tested for binding of the activated p65 NF-κB subunit to an NF-κB consensus sequence using the TransAM NF-κB ELISA kit. The p65 DNA binding activity was calculated as the ratio of absorbance from PLP139-151-stimulated cells to that of unstimulated cells. Values are the average±S.D. performed 3 times in duplicate. (K)-(L) show real time PCR for T-bet (K) and GATA-3 (L) was performed using 50 ng of cDNA isolated from CD4+LNC of R-EAE mice re-stimulated in vitro with PLP139-151 under the indicated conditions.
Proliferative responses of CD4+ lymph node cells and splenocytes harvested 10 days post-induction upon re-stimulation in vitro with PLP^139-151 in the presence or absence of chariot peptide complexed with purified GILZ protein and/or GILZ mimetics at varying concentrations is determined as described. IL-2, TNF-α, IFN-γ, IL12-p40, IL-17, IL-4, IL-5, IL-10 and TGF-β) of the cells following similar in vitro restimulation is determined by ELISA. Measurement of relative quantities of Th1 and Th2 specific transcription factors is determined by real time PCR using ABI primers.

[4] = Example 1, entire period of observation
[5] = Example 1, i.p. on day 0 with Pep-1, peptides 500 μg, r-GILZ 2 ng, n=4/group
[6] = Example 2, single i.p. dose on day 0 with Pep-1, peptides 500 μg, r-GILZ 2 ng, n=9/group

Substance	IFN-γ secretion [1]	IL-10 secretion [1]	IL-12 secretion [1]	IL-17 secretion [1]	cytokine secretion (INF-γ and IL-12p40) by in-vivo primed T cells [1]	p65-specific DNA binding activity in nuclear extracts [2]	clinical relapse after initial remission (R-EAE in SJL/J mice; [4])	mean clinical score (severity of clinical disease) (R-EAE in SJL/J mice; [5])	clinical relapse after initial remission (R-EAE in SJL/J mice; Example 2)	mean total clinical score (R-EAE in SJL/J mice; [6])	average clinical score per day, in words (R-EAE in SJL/J mice; Example 2, vs control groups)	GATA-3 mRNA [3]	T-bet mRNA [3]	FoxP3 mRNA [3]	IL-10 mRNA [3]	GATA-3 mRNA (T-bet and GATA-3 mRNA)	T-bet mRNA (T-bet and GATA-3 mRNA)	further results
Ac-CLSPEEPAPESPQVPEAPGGSAV-NH2 [GILZ-P]	significantly lower	elevated	significantly lower	significantly lower	suppresses	significantly decreased	exhibited no relapse	0.56+/−0.21	exhibited minimal relapse	2.25±0.72	significantly lower	elevated	significantly lower	significantly higher	significantly higher	elevated	significantly decreased	IFN-γ secretion ([1]; listed as GILZ-peptide): significantly decreased; IL-12 secretion ([1]; listed as GILZ-peptide): significantly decreased; mean clinical score (severity of clinical disease) (R-EAE in SJL/J mice; Example 1, GILZ peptide 500 μg i.p. on day 12 post-induction): 1.78+/−1.01; average clinical score per day, in words (R-EAE in SJL/J mice; Example 1, day 0/day 12 treatment vs control groups, listed as GILZ peptide): significantly reduced scores; average clinical score per day, in words (R-EAE in SJL/J mice; Example 1, day 0/day 12 treatment vs control groups, listed as GILZ-peptide): significantly lower; mean total clinical score (R-EAE in SJL/J mice; Example 2, Pep-1•GILZ-P single dose on day 12): 15.75±4.85; GATA-3 mRNA (T-bet and GATA-3 mRNA; listed as GILZ-peptide): up-regulated; T-bet mRNA (T-bet and GATA-3 mRNA; listed as GILZ-peptide): down-regulated
r-GILZ: recombinant glucocorticoid induced leucine zipper protein (Abnova; OriGene with C-terminal DDK)	significantly decreased; also recorded: significantly lower	elevated	significantly decreased; also recorded: significantly lower	significantly lower	suppresses	significantly decreased	exhibited no relapse	0.17+/−0.14	exhibited minimal relapse	7.13±2.8	significantly lower	elevated	significantly lower	significantly higher	significantly higher	up-regulated; also recorded: elevated	down-regulated; also recorded: significantly decreased	average clinical score per day, in words (R-EAE in SJL/J mice; Example 1, day 0/day 12 treatment vs control groups): significantly reduced scores; also recorded: significantly lower
